Series [1] can be described thus: Structure determination of released drugs (1H-NMR of day 5 release media). To be noted: released at day 5, 1H-NMR chemical shifts and integration. The format is physicochemical. As for the experimental part:
Release media from day 5 (time point with the highest drug concentration) were freeze-dried for 24 h at −40° C. and 133×10^−3 mBar (LABCONO Freeze Dry System/Freezon 4.5). The resulting white powder was dissolved in acidic water (5 mL, pH˜1) and extracted with DCM (5×3 mL). DCM was evaporated under reduced pressure and the samples dried under vacuum for 2 days. Solutions of the free drugs (1 and 2) were prepared and treated as described above for the release media. ^1H-NMR spectroscopy was used to confirm the chemical structures of the released drugs.

Series [2] relates to NCTC clone 929 (strain L) mouse areolar fibroblast cells (L929 cells). Conditions: 0.5% DMSO. As to the method: Polymers and diacids were separately dissolved in dimethyl sulfoxide (DMSO) and diluted with cell media to reach concentrations of 0.10 and 0.05 mg/mL. These solutions were sterilized under UV at λ=254 nm for 900 s (Spectronics Corporation, Westbury, N.Y.) and then allocated to wells in a 96-well plate with 2000 cells/well. DMSO (0.5%) in cell media was used as negative control.
Cell viability was determined using CellTiter 96® Aqueous One Solution Cell Proliferation Assay. After 24 h, 48 h, and 72 h incubation with polymers or diacids, 20 μL of (3-(4,5-dimethylthiazol-2-yl)-5-(3-carboxymethoxyphenyl)-2-(4-sulfophenyl)-2H-tetrazolium) (MTS) reagent was added to each well and further incubated for 2 h at 37° C. The absorbance was then recorded with a microplate reader (Coulter, Boulevard Brea, Calif.) at 492 nm.

The values below come from patent US9144579B2, “Polyesters and methods of use thereof” (Rutgers, The State University of New Jersey, priority 2012, dated 2015).

Where two headings read alike, the source gives them in different places.

With `COc1ccc2cc([C@H](C)C(=O)O)ccc2c1` [compound 2, naproxen], in series [1], the “chemical structure of drug released from polymer versus free drug” value is listed as “preserved”.

`CC(C)Cc1ccc(C(C)C(=O)O)cc1` (stereo not drawn) [compound 1, ibuprofen]: in series [1], the “chemical structure of drug released from polymer versus free drug” value is reported as “preserved”.

`CC(C)Cc1ccc(C(C)C(=O)OC(C(=O)O)C(OC(=O)C(C)c2ccc(CC(C)C)cc2)C(=O)O)cc1` (stereo not drawn) [6a, Ibuprofen-tartaric diacid]: the “cell proliferation / viability” value in series [2] (0.05 mg/mL, 24, 48 and 72 h) is given as “normal cell proliferation”; in series [2] (0.10 mg/mL, 24, 48 and 72 h) it was “normal cell proliferation”.

As for `COc1ccc2cc(C(C)C(=O)OC(C(=O)O)C(OC(=O)C(C)c3ccc4cc(OC)ccc4c3)C(=O)O)ccc2c1` (stereo not drawn) [6b, Naproxen-Tartaric Diacid], the “cell proliferation / viability” value was “normal cell proliferation” in series [2] (0.05 mg/mL, 24, 48 and 72 h); “normal cell proliferation” in series [2] (0.10 mg/mL, 24, 48 and 72 h).
